Source: the Kinase Knowledgebase extract (Sharma et al. 2016)

What follows are compounds tested against PIK3CA (human) (UniProt P42336) (assay: Assessment of PI3KCA Kinase Activity).
Sequence of PIK3CA (human) (P42336 whole entry, looked up): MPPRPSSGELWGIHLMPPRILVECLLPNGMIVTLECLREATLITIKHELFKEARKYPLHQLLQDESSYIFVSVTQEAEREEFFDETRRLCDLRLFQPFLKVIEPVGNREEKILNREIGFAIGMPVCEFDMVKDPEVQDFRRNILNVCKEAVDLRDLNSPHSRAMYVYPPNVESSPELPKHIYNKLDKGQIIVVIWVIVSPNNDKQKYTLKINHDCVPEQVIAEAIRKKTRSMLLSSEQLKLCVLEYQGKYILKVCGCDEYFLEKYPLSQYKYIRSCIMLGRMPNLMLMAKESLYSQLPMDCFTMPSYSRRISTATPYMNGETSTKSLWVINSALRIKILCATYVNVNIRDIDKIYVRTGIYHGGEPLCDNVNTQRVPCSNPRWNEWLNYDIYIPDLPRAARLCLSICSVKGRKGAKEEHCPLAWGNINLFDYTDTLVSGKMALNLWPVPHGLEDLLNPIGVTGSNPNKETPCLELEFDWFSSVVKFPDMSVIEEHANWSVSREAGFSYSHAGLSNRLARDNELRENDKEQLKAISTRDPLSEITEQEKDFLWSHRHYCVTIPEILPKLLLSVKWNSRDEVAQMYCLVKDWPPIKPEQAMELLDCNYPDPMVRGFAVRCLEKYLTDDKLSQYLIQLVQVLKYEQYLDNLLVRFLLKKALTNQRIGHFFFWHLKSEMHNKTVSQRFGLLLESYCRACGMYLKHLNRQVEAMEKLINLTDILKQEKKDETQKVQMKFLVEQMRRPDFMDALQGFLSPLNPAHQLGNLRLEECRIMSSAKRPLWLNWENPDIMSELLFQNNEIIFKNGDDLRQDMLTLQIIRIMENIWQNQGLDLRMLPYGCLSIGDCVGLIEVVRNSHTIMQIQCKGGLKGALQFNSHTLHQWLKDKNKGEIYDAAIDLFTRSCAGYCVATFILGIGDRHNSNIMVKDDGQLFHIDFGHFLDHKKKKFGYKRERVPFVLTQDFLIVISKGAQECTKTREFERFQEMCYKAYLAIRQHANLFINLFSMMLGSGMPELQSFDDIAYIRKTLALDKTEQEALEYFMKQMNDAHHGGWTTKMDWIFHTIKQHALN
Compound `CNc1ncc(Cl)c(-c2sc(-c3nnc[nH]3)c(-c3ccc(Cl)cc3Cl)c2C#N)n1` has an IC50 of 100 to 1000 nM.
In the case of `CCOC(=O)Nc1cc(-c2nc(OCC)c(-c3nc[nH]n3)s2)ccn1`, the IC50 is reported as < 100 nM.
For `c1ccc(-c2nc(-c3cnn4ccccc34)sc2-c2nnc[nH]2)cc1`, the IC50 was 100 to 1000 nM.
For `Cc1nn2ccc(OCCN3CCOCC3)cc2c1-c1nc(-c2ccccc2F)c(-c2nc[nH]n2)s1`, the IC50 was < 100 nM.
In the case of `Cc1n[nH]c(C)c1-c1nc(-c2c(C)nn3ccccc23)sc1-c1nc[nH]n1`, the IC50 is reported as < 100 nM.
`N#Cc1c(-c2ccnc(F)c2)sc(C(N)=O)c1-c1ccc(Cl)cc1Cl` gave an IC50 of 100 to 1000 nM.
For `COC(=O)c1cnc(-c2sc(-c3ccnc(NC(C)=O)c3)c(C#N)c2-c2ccc(Cl)cc2Cl)[nH]1`, the IC50 was 100 to 1000 nM.
With `Cc1nc(NC(=O)C2CC2)sc1-c1nc(-c2ccccc2)c(-c2nc[nH]n2)s1` the IC50 was < 100 nM.
In the case of `CC(=O)Nc1cc(-c2nc(-c3ccc(Cl)cc3Cl)c(-c3nnc[nH]3)s2)ccn1`, the IC50 is reported as < 100 nM.
With `Cc1nn2ccc(OC3CCNCC3)cc2c1-c1nc(-c2ccccc2)c(-c2nc[nH]n2)s1` the IC50 was < 100 nM.
Work on `CC(=O)Nc1cc(-c2nc(-c3ccc(C(=O)N4CCNCC4)cc3)c(-c3ncc[nH]3)s2)ccn1` yielded an IC50 of 100 to 1000 nM.
With `COc1cccc(F)c1-c1nc(-c2c(C)nn3ccc(OCCN4CCN(S(C)(=O)=O)CC4)cc23)sc1-c1nc[nH]n1` the IC50 was < 100 nM.
For `COc1ccc(-c2nc(-c3c(C)nn4ccccc34)sc2-c2nc[nH]n2)c(OC)c1`, the IC50 was < 100 nM.
With `CCOc1cccc(F)c1-c1nc(-c2c(C)nn3ccccc23)sc1-c1nc[nH]n1` the IC50 was 100 to 1000 nM.
In the case of `CC(=O)N1CCN(CCOc2ccn3nc(C)c(-c4nc(-c5ccccc5)c(-c5nc[nH]n5)s4)c3c2)CC1`, the IC50 is reported as < 100 nM.
In the case of `N#Cc1c(-c2ccnc(NCCO)c2)sc(-c2nnc[nH]2)c1-c1ccc(Cl)cc1Cl`, the IC50 is reported as < 100 nM.
`CC(=O)Nc1cc(-c2sc(-c3nnc(Br)[nH]3)c(-c3ccc(Cl)cc3Cl)c2C#N)ccn1` was tested, and the IC50 was < 100 nM.
`CC(=O)Nc1cc(-c2nc(-c3cccc(C)c3)c(-c3ncc[nH]3)s2)ccn1` was tested, and the IC50 was 100 to 1000 nM.
In the case of `COc1ccc(-c2nc(-c3ccnc(NC(C)=O)c3)sc2-c2ncc[nH]2)c(Cl)c1`, the IC50 is reported as < 100 nM.
For `COCCNc1nccc(-c2sc(-c3nnc[nH]3)c(-c3ccc(Cl)cc3Cl)c2C#N)n1`, the IC50 was < 100 nM.
In the case of `Cc1nc2ccc(C=O)cn2c1-c1nc(-c2ccccc2)c(-c2nnc[nH]2)s1`, the IC50 is reported as < 100 nM.
For `CNc1cc(-c2sc(-c3nccn3C)c(-c3ccc(Cl)cc3Cl)c2C#N)ccn1`, the IC50 was 100 to 1000 nM.
`CC(=O)Nc1cc(-c2nc(-c3ccc(Cl)cc3Cl)c(-c3ncc[nH]3)s2)ncn1` was tested, and the IC50 was < 100 nM.
In the case of `Cc1nn2ccc(OCCN3CCN(C)C(=O)C3)cc2c1-c1nc(-c2ccccc2)c(-c2nc[nH]n2)s1`, the IC50 is reported as < 100 nM.
`COC(=O)c1ccc(-c2nc(-c3ccnc(NC(C)=O)c3)sc2-c2ncc[nH]2)cc1` was tested, and the IC50 was 100 to 1000 nM.
With `Cc1nnc(-c2sc(-c3c(C)nn4ccsc34)nc2-c2ccccc2)[nH]1` the IC50 was < 100 nM.
For `Cc1nc2ccc(CCCN)cn2c1-c1nc(-c2ccccc2)c(-c2nnc[nH]2)s1`, the IC50 was < 100 nM.
For `COC[C@H]1CCCN1CCC(=O)Nc1cc(-c2nc(-c3ccccc3)c(-c3nnc[nH]3)s2)ccn1`, the IC50 was < 100 nM.
Work on `N#Cc1c(-c2cc(N)nc(F)c2)sc(-c2nnc[nH]2)c1-c1ccc(Cl)cc1Cl` yielded an IC50 of 100 to 1000 nM.
With `CC(=O)Nc1cc(-c2nc(-c3ccc(F)cc3F)c(-c3ncc[nH]3)s2)ccn1` the IC50 was < 100 nM.
`COc1ccc(F)c(F)c1-c1nc(-c2c(C)nn3ccccc23)sc1-c1nc[nH]n1` was tested, and the IC50 was 100 to 1000 nM.
For `CC(=O)Nc1cc(-c2sc(-c3ccn[nH]3)c(-c3ccc(Cl)cc3Cl)c2C#N)ccn1`, the IC50 was < 100 nM.
